# Measurements as given in PubChem BioAssay (NCI).
# Values joined by “and” are separate entries in the source; they are usually repeats but may differ in a detail not shown here. Equal values may be shown once.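 Results reflect a 48-hour exposure of cells in 96-well plates to compound at five concentrations. GI50 is the concentration that inhibits growth by half. At the TGI there is no net growth.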
# Assays:
# Assay in all cases: NCI tumour cell line growth inhibition, 48 h
# OVCAR-8 ovarian = system: OVCAR-8 ovarian
# HOP-92 NSCLC = system: HOP-92 NSCLC
# RPMI-8226 leukemia = system: RPMI-8226 leukemia
# A498 renal = system: A498 renal
# SF-268 CNS = system: SF-268 CNS
# EKVX NSCLC = system: EKVX NSCLC
# HCC-2998 colon = system: HCC-2998 colon
# DU-145 prostate = system: DU-145 prostate
# UACC-257 melanoma = system: UACC-257 melanoma
# COLO 205 colon = system: COLO 205 colon
Structure (SMILES),GI50 (OVCAR-8 ovarian),TGI (OVCAR-8 ovarian),GI50 (HOP-92 NSCLC),TGI (HOP-92 NSCLC),GI50 (RPMI-8226 leukemia),TGI (RPMI-8226 leukemia),GI50 (A498 renal),TGI (A498 renal),GI50 (SF-268 CNS),TGI (SF-268 CNS),GI50 (EKVX NSCLC),TGI (EKVX NSCLC),GI50 (HCC-2998 colon),TGI (HCC-2998 colon),GI50 (DU-145 prostate),TGI (DU-145 prostate),GI50 (UACC-257 melanoma),TGI (UACC-257 melanoma),GI50 (COLO 205 colon),TGI (COLO 205 colon)
COc1ccc(C2[C@@H](c3ccccc3)C(=O)N2c2cc(OC)c(OC)c(OC)c2)cc1F (stereo not given in full),34.4 nM,> 100 µM,2840 nM,> 100 µM,41.3 nM,4 µM,27 nM,0.0861 µM,0.0443 µM,> 100 µM,77.6 nM,> 100 µM,39.4 nM,> 100 µM,35.4 nM,> 100 µM,,,,
COc1ccc(/C=N/NC(=O)c2cccc3cc[nH]c23)cc1O,6200 nM,> 100 µM,18500 nM,> 74.6 µM,3380 nM,24.8 µM,4050 nM,86.1 µM,4.01 µM,> 100 µM,11000 nM,> 100 µM,6960 nM,97.5 µM,3000 nM,> 46.5 µM,> 42.8 µM,> 100 µM,13900 nM,> 80.7 µM
O=C(CCCSc1nc(-c2ccccc2)cc(-c2ccccc2)n1)NO,484 nM,18.3 µM,1580 nM,6.13 µM,808 nM,9.38 µM,1120 nM,3.1 µM,2.03 µM,5.76 µM,2930 nM,14.5 µM,2050 nM,6.95 µM,1830 nM,11.4 µM,1.77 µM,6.71 µM,1860 nM,5.1 µM
O=C(/C(=C/c1ccc([N+](=O)[O-])cc1)SCc1ccccc1)c1ccc(Cl)cc1,3980 nM,15.2 µM,2280 nM,9.46 µM,1780 nM,5.03 µM,13200 nM,28.2 µM,3.09 µM,13.1 µM,6770 nM,20.2 µM,1970 nM,3.89 µM,3600 nM,13.8 µM,6.36 µM,19.4 µM,2140 nM,5.11 µM
CCC(=C/[C@H](C)C/C=C/C(C)=C/[C@@H](C)C(=O)[C@@H](C)[C@H](O)[C@@H](C)CC)/C=C/[C@H]1OC(=O)C=C[C@@H]1C,< 10 nM,10.3 µM,< 10 nM,1.2 µM,< 10 nM,1.19 µM,< 10 nM,< 0.01 µM,< 0.01 µM,1.72 µM,< 10 nM,5.21 µM,< 10 nM,< 0.01 µM,< 10 nM,4.56 µM,,,< 10 nM,0.345 µM
CC1=C2C(=C[C@@](C)(CO)[C@@H]2O)C(=O)[C@](C)(O)C12CC2,,0.0311 µM,,0.061 µM,1150 nM,6.09 µM and 12.3 µM,,0.0288 µM,,0.0192 µM and 0.106 µM,,0.0678 µM and 0.0153 µM,,0.0302 µM and 0.018 µM,,0.0597 µM,,0.0308 µM and 0.0229 µM,,0.0218 µM
CCCOc1cc2ccccc2cc1C(=O)Nc1nc(N)c2c(ccc3nccc32)[nH]1,203 nM,1.69 µM,27.9 nM,1.98 µM,113 nM,2.15 µM,31.2 nM,0.622 µM,0.0658 µM,2.86 µM,398 nM,2.25 µM,220 nM,1.86 µM,48.7 nM,1.45 µM,1.21 µM,2.62 µM,44.5 nM,0.481 µM
CC1SC(c2ccc(F)cc2)N(NC(=O)C(O)c2ccccc2)C1=O (stereo not given),> 100000 nM,> 100 µM,> 100000 nM,> 100 µM,> 100000 nM,> 100 µM,> 100000 nM,> 100 µM,> 100 µM,> 100 µM,> 100000 nM,> 100 µM,> 100000 nM,> 100 µM,> 100000 nM,> 100 µM,> 100 µM,> 100 µM,,
CC1(C)OC1COc1c2occc2cc2ccc(=O)oc12 (stereo not given),,> 100 µM,,> 100 µM,,> 100 µM,,> 100 µM,,> 100 µM,,> 100 µM,,> 100 µM,,> 100 µM,,> 100 µM,,> 100 µM
O=C(/C=C/c1ccc(O)cc1)c1ccc(O)cc1,,41.6 µM,,76 µM,,69 µM,,65.1 µM,,71.8 µM,,97.1 µM,,52.7 µM,,99.9 µM,,74.7 µM,,> 65.9 µM
CN(C)CC1CC/C(=C\c2ccc(O)cc2)C1=O (stereo not given),,14.6 µM,,5.82 µM,,4 µM,,21.3 µM,,23.1 µM,,14.4 µM,,25.5 µM,,29.6 µM,,11.3 µM,,3.77 µM
C=C1C(=O)O[C@H]2[C@H]1CC/C(COC(=O)NCc1ccc(Cn3c(=O)sn(-c4ccc(OC)cc4)c3=O)cc1)=C\CC[C@@]1(C)O[C@@H]21,2370 nM,5.82 µM,1610 nM,3.47 µM,2010 nM,4.52 µM,5650 nM,17.8 µM,3.14 µM,9.86 µM,3500 nM,14.6 µM,10400 nM,25.5 µM,1810 nM,3.21 µM,2.03 µM,4.34 µM,1850 nM,3.38 µM
CCN(Cc1ccc(F)cc1)c1cc(Cl)c(CO)c(Cl)c1,14300 nM,31.3 µM,3610 nM,18.1 µM,10700 nM,42.9 µM,1370 nM,6.39 µM,13.6 µM,27.7 µM,,,13900 nM,28.1 µM,16800 nM,31.6 µM,6.56 µM,20.4 µM,17300 nM,31.4 µM
Cc1csc(-c2nnc(Nc3ccc(Oc4ncccc4-c4ccnc(N)n4)cc3)c3ccccc23)c1,,> 100 µM,> 100000 nM,> 100 µM,3050 nM,> 100 µM,> 100000 nM,> 100 µM,,,> 100000 nM,> 100 µM,2540 nM,> 30.2 µM,4610 nM,> 100 µM,,> 100 µM,,
COc1cc(C2CC(C)(O)Oc3cc4c(cc32)OCO4)cc(OC)c1OC (stereo not given),,6.01 µM,,> 100 µM,,18.7 µM,,> 100 µM,,> 100 µM,,> 100 µM,,34.8 µM,,> 100 µM,,> 100 µM,,2.92 µM
COc1ccc2nc(NC(=O)CSc3nnc4n3S(=O)(=O)c3ccccc3N4c3ccccc3)sc2c1,> 100000 nM,> 100 µM,42700 nM,> 100 µM,1450 nM,> 100 µM,> 100000 nM,> 100 µM,> 100 µM,> 100 µM,> 100000 nM,> 100 µM,> 100000 nM,> 100 µM,> 100000 nM,> 100 µM,> 100 µM,> 100 µM,> 100000 nM,> 100 µM
CCN(C(=O)N1CCN(c2cc3c(cc2F)c(=O)c(C(=O)O)cn3C2CC2)CC1)c1nc(-c2ccc(Cl)cc2)cs1,1310 nM,> 100 µM,825 nM,4.8 µM,838 nM,3.17 µM,29.8 nM,1.6 µM,1.28 µM,> 100 µM,2540 nM,> 100 µM,2830 nM,> 28.6 µM,1830 nM,> 100 µM,2.53 µM,7.3 µM,2000 nM,6.17 µM
O=S(=O)(c1ccccc1)N1CCN(S(=O)(=O)c2ccccc2)c2ccccc21,,> 100 µM,,> 100 µM,,> 100 µM,,> 100 µM,,> 100 µM,,80.1 µM,,> 100 µM,,> 100 µM,,> 100 µM,,> 100 µM
CCN1C(=O)N(c2ccccc2)C2NC(=S)N(/N=C/C=C/c3ccccc3OC)C21 (stereo not given),118 nM,> 84.3 µM,2150 nM,> 85 µM,126 nM,14.2 µM,31.1 nM,0.653 µM,0.195 µM,> 100 µM,174 nM,> 100 µM,111 nM,> 100 µM,115 nM,> 34.4 µM,3.44 µM,> 88.5 µM,210 nM,0.487 µM
COC[C@H]1Cn2cc(-c3nc(Nc4ccnn4C)ncc3C)nc2C(=O)N1Cc1ccc(F)c(F)c1,98200 nM,> 100 µM,210 nM,> 26.4 µM,4470 nM,> 100 µM,40.5 nM,0.291 µM,29.3 µM,> 100 µM,255 nM,> 100 µM,67.3 nM,> 100 µM,22700 nM,> 100 µM,0.0352 µM,> 100 µM,20.3 nM,> 100 µM
COc1ccc(-c2cn[nH]c2-c2cc(OC)c(OC)c(OC)c2)cc1,50 nM,38.1 µM,40.7 nM,9.79 µM,42.9 nM,5.16 µM,,0.0715 µM,0.0795 µM,31.5 µM,,,43.2 nM,15 µM,39.2 nM,2.67 µM,0.558 µM,> 49.6 µM,19.7 nM,0.0482 µM
COc1ccc(CCN=C2NC(=O)/C(=C/c3ccc4ncccc4c3)S2)cc1,> 25000 nM,> 25 µM,> 11300 nM,> 25 µM,> 25000 nM,> 25 µM,> 18300 nM,> 25 µM,> 25 µM,> 25 µM,,,> 25000 nM,> 25 µM,> 25000 nM,> 25 µM,> 25 µM,> 25 µM,> 25000 nM,> 25 µM
Nc1n[nH]c2cc(F)c([C@@H]3Nc4ccc5[nH]ncc5c4[C@H]4C5CCC(C5)[C@@H]34)cc12 (stereo not given in full),193 nM,> 30.6 µM,240 nM,9.01 µM,173 nM,1.82 µM,78.7 nM,0.288 µM,0.368 µM,14.9 µM,237 nM,49.4 µM,177 nM,1.93 µM,205 nM,8.75 µM,3.98 µM,44.8 µM,162 nM,0.527 µM
Nc1ccc(C2=NNC(=O)Cc3cc4c(cc32)OCCO4)cc1Cl,8030 nM,> 50 µM,4890 nM,49 µM,7560 nM,> 50 µM,944 nM,19.9 µM,8.77 µM,> 50 µM,12700 nM,> 50 µM,3730 nM,> 50 µM,11400 nM,> 50 µM,13.3 µM,> 50 µM,2630 nM,17.5 µM
COc1cc(/C(C#N)=C/c2nc3c(N4CCOCC4)nc(Cl)nc3n2C)cc(OC)c1OC,< 10 nM,31.3 µM,158 nM,4.38 µM,< 10 nM,1.88 µM,< 10 nM,< 0.01 µM,< 0.0118 µM,> 26.8 µM,,> 69.9 µM,< 15.7 nM,2.19 µM,< 10 nM,> 94.3 µM,2.45 µM,> 55.2 µM,12.4 nM,0.0335 µM
Nc1c(C(=O)Nc2cccc(C(F)(F)F)c2)sc2nc3c(cc12)CCCCC3,3490 nM,19.8 µM,1820 nM,6.23 µM,4320 nM,35.5 µM,1530 nM,7.08 µM,2.99 µM,16.2 µM,,,31000 nM,> 100 µM,4810 nM,28.4 µM,3.64 µM,37.4 µM,11700 nM,> 100 µM
O=C1NC(=NC(CO)Cc2ccccc2)S/C1=C\c1ccc2ncccc2c1 (stereo not given),> 21100 nM and 5240 nM,> 25 µM,24200 nM and 6610 nM,> 25 µM and 19.5 µM,> 18400 nM and 2330 nM,> 25 µM and 12.1 µM,> 15200 nM and 1960 nM,> 25 µM and 7.67 µM,20 µM and 4.36 µM,> 25 µM,,,13900 nM and 8020 nM,> 25 µM,18800 nM and 2620 nM,> 25 µM,> 25 µM and 5.79 µM,> 25 µM and 19 µM,9230 nM and 1860 nM,> 25 µM
